Laboratory results: patent US7912651B2, “Function homology screening” (BioSeek LLC, priority 2000, dated 2011)
“Also recorded” adds a separate entry of the source.

Experiments:
HUVEC cells [1] = experiment: Optimized inflammatory assay combination: HUVEC treated with IL-1+TNF-α+IFN-γ, readout parameters by cell-based ELISA; parameters: species or system human; conditions: for activity (altered biomap) in the optimized assay combination: HUVEC, TNF-α (5 ng/ml)+IFN-γ (100 ng/ml)+IL-1, 24 hours
Description: Primary human umbilical vein endothelial cells (HUVEC) are used. Other cells that may replace HUVEC in the screen include primary microvascular endothelial cells, aortic or arteriolar endothelial cells or endothelial cell lines such as EAhy926 or E6-E7 4-5-2G cells or human telomerase reverse transcriptase-expressing endothelial cells (Simmons, J. Immunol., 148:267, 1992; Rhim, Carcinogenesis 19:673, 1998; Yang, J. Biol. Chem. 274:26141, 1999). 2×10^4 cells/ml are cultured to confluence in EGM-2 (Clonetics). Other media that may replace EGM-2 include EGM (Clonetics) and Ham's F12K medium supplemented with 0.1 mg/ml heparin and 0.03-0.05 mg/ml endothelial cell growth supplement (ECGS) and 10% FBS, or medium M199 (Life Technologies, Inc.) containing 20% fetal bovine serum and 2 ng/ml basic fibroblast growth factor (Jaffe, J. Clin. Invest. 52:2745, 1973; Hoshi, PNAS 81:6413, 1984). The disease environment present in chronic inflammatory diseases, such as Crohn's disease, differs from the normal condition by increased presence of multiple biologically active agents including IL-1, TNF-α, and IFN-γ (Woywodt, 1994; Kakazu, 1999). Other biologically active agents that may be increased in chronic inflammatory disease environments include IL-4, IL-6, IL-8, IL-12, IL-13, IL-18, TGFbeta, and histamine, as well as activated leukocytes and their products (Daig, 1996, Gut 38:216; Woywodt, 1994, Eur. cytokine Netw. 5:387; Kakazu, 1999 Am J. Gastroenterol. 94:2149; Pizarro, 1999, J. Immunol. 162:6829; Monteleone, 1999, J. Immunol. 163:143; […] Enteral Nutr 23:S20; Beck, 1999, […]. Bowel Dis. 5:44). Optimized assay combinations will contain at least two, and preferably three, four or more of these biologically active agents. Concentrations of agents are standard according to the literature, typically at physiologic concentrations. Concentrations may also be determined experimentally as the amount required to saturate the relevant receptor. A useful feature of the present invention is that combinatorial effects of multiple factors are observed over wide ranges of factor concentrations. Based on the factors included in an assay combination, a set of parameters for including in a biomap are selected. The experiments provided in FIG. 1A-1C illustrate the usefulness of the present invention in compound screening applications. […] After 24 hours, cultures are washed and evaluated for the presence of the parameters ICAM-1 (1), VCAM-1 (2), E-selectin (3), IL-8 (4), CD31 (5), HLA-DR (6) and MIG (7) by cell-based ELISA as described (Melrose, J. Immunol. 161:2457, 1998). For this, plates are blocked with 1% Blotto for 1 hr, and treated with primary antibodies (obtained from Pharmingen and Becton Dickinson) at 1 ng/ml for 2 hr. After washing, secondary peroxidase-conjugated anti-mouse IgG antibody (Promega) at 1:2500 is applied for 45 min. After washing, TMB substrate (Kierkegaard & Perry) is added and color developed. Development is stopped by addition of H2SO4 and the absorbance at 450 nm (subtracting the background absorbance at 600 nm) is read with a Molecular Dynamics plate reader. The relative expression levels of each parameter are indicated by the OD at 450 nm shown along the y-axis. The mean+/-SD from triplicate samples is shown. The assay combinations shown in FIG. 1 are useful in screening compounds that modulate TNF-α, IL-1 and IFN-γ signaling pathways, however, compounds must be evaluated separately in all three assay combinations to identify compounds that selectively modulate one or more of these pathways. In addition, compounds that selectively modulate combinatorial effects of these pathways cannot be distinguished. […] Confluent cultures of HUVEC cells are treated with TNF-α (5 ng/ml)+IFN-γ (100 ng/ml)+IL-1 (1 ng/ml) in the presence or absence of neutralizing anti-TNF-α or control antibody (Goat anti-IgG). […] In FIG. 3A, the relative expression of each parameter is shown along the y-axis as average value of the OD measured at 450 nm of triplicate samples. […]

TNF-R1 (p55) = TNF-R1 (p55) morpholino antisense in HUVEC, flow cytometry; type: cell-based, human; conditions: 4 hours
From the text: Morpholino phosphorodiamidate (MF) antisense oligonucleotides are used. Other chemical classes of antisense oligonucleotides that can be substituted for morpholinos include but are not limited to phosphorotioate oligonucleotides, N3′-P5′ phosphoramidate oligonucleotides (NP), locked nucleic acid (LNA), 2′-O-methoxyethyl nucleic acid (MOE), 2′-fluoro-arabinonucleic acid (FANA), peptide nucleic acids (PNA) (reviewed in Toulme, Nature Biotech. 19:17, 2001). In the example in FIG. 18, antisense oligonucleotides for TNF-R1 (p55) (5′-[…]-3′)(SEQ ID NO:1), and the beta-globin control oligo (5′-[…]-3′)(SEQ ID NO:2) (Gene Tools Inc.) are used. The transfection mixture is prepared by mixing […] of stock morpholino (0.5 mM), […], and 4 ml of 200 mM EPEI (Ethoxylated PolyEthylenimine), vortexed, incubated at room temperature for 20 minutes, and then mixed with 3.5 ml of serum-free media to give a final 0.6 μM morpholino concentration. HUVEC cells are plated the day before in 24-well plates at 4-6×10e4 cells/well. Cells are washed once with serum-free media and incubated with 0.4 ml of the morpholino transfection mixture at 37° C. for 3 hours. Morpholino is removed, regular media (Epithelial Growth Media with 2% fetal calf serum, Clonetics) is added and cells allowed to recover overnight. The efficiency of loading of cells with morphino is monitored in cells incubated with a fluorescent morpholino, and is typically essentially 100 percent. HUVEC cells are then treated with either TNF-α (0.5 ng/ml), or IL-1 (1 ng/ml), or media only. After 4 hours, cells are harvested and evaluated for the cell surface expression of ICAM-1 (1), VCAM-1 (2), E-selectin (3), and CD31 (4) by flow cytometry. […] The TNF-R1 antisense specifically blocks induction of ICAM-1 and VCAM-1 by TNF-α, while it has no effect on induction of the same markers by the independent cell surface receptor for IL-1.

HUVEC cells [2] = experiment: Lactate dehydrogenase (LDH) in HUVEC culture supernatants, CytoTox96 assay; type: cell-based, human; conditions: endothelial cell cultures
Description: Effect of over-expression of bcl-2 and bcl-xl proteins on a panel of assay combinations. HUVEC cells were transduced with either Bcl-2, Bcl-xL or control empty vector (control). Confluent cultures were treated with either ceramide (10 μm), TNF-α (5 ng/ml), ceramide (10 μm)+TNF-α (5 ng/ml), or media only. After 24 hours, cells were washed and evaluated for the surface expression of ICAM-1 (1), VCAM-1 (2), and MIG (3) by cell-based ELISA performed as described in FIG. 1. Cell supernatants were collected and analyzed for the presence of lactate dehydrogenase LDH (4) by CytoTox96 assay (Promega).
A panel of assay combinations that reproduces aspects of the response of the endothelial cells to inflammatory processes and stimuli enhancing apoptosis is used. […] Endothelial cells cultured under basal conditions display a low level of cell damage as measured by release of cytoplasmic lactate dehydrogenase from cells into the supernatant.

HUVEC cells [3] = experiment: HUVEC in basal medium cultured with factor or agent for 24 hours, cell-based ELISA; parameters: species or system human; conditions: HUVEC cultured with the factor/agent for 24 hours, vs basal medium
Description: After 24 hours, cultures are washed and evaluated for the presence of the parameters ICAM-1 (1), VCAM-1 (2), E-selectin (3), IL-8 (4), CD31 (5), HLA-DR (6) and MIG (7) by cell-based ELISA as described (Melrose, J. Immunol. 161:2457, 1998). For this, plates are blocked with 1% Blotto for 1 hr, and treated with primary antibodies (obtained from Pharmingen and Becton Dickinson) at 1 ng/ml for 2 hr. After washing, secondary peroxidase-conjugated anti-mouse IgG antibody (Promega) at 1:2500 is applied for 45 min. After washing, TMB substrate (Kierkegaard & Perry) is added and color developed. Development is stopped by addition of H2SO4 and the absorbance at 450 nm (subtracting the background absorbance at 600 nm) is read with a Molecular Dynamics plate reader. The relative expression levels of each parameter are indicated by the OD at 450 nm shown along the y-axis. The mean+/−SD from triplicate samples is shown.
After 24 hours, cultures are washed and evaluated for the presence of the parameters ICAM-1 (1), VCAM-1 (2), E-selectin (3), IL-8 (4), CD31 (5), HLA-DR (6) and MIG (7) by cell-based ELISA performed as described in FIG. 1 and are reported as the OD at 450 nm in FIG. 2. The mean+/−SD from triplicate samples are shown. * indicates p<0.05 comparing results obtained with the two separate conditions.
After 24 hours, cultures are washed and evaluated for the presence of the parameters ICAM-1 (1), VCAM-1 (2), E-selectin (3), IL-8 (4), CD31 (5), HLA-DR (6) and MIG (7) by cell-based ELISA performed as described in FIG. 1 and are reported as the OD at 450 nm. The mean+/−SD from triplicate samples are shown. * indicates p<0.05 comparing results obtained with the two separate conditions.

HUVEC cells [4] = experiment: HUVEC assay combinations with single pathway activators (TNF-α, IL-1, IFN-γ or activating antibody to p55), biomaps by cell-based ELISA; parameters: species or system human
Description: Confluent cultures of HUVEC cells are treated with TNF-α (5 ng/ml), IFN-γ (100 ng/ml), IL-1 (20 ng/ml), the combination of TNF-α+IFN-γ+IL-1, or media in the presence or absence of Act-anti-p55. After 24 hours, cultures are washed and evaluated for the cell surface expression of ICAM-1 (1), VCAM-1 (2), E-selectin (3), IL-8 (4), and MIG (5) by cell-based ELISA performed as described in FIG. 1. A color-coded representation of the resulting biomaps prepared from the data is shown in FIG. 8, coded as described in FIG. 2B. […]

O=C(NC1=CC(=O)c2ccccc2C1=O)c1ccccc1 [PPM-18]
cellular toxicity at higher concentrations (2-fold) when tested alone (HUVEC cells [1]; 2-fold above PPM-18 2 μM / AG126 25 μM): cellular toxicity
activity (altered biomap) in the optimized assay combination (HUVEC cells [1]): active compounds

CC(Cc1ccc(O)c(O)c1)C(C)Cc1ccc(O)c(O)c1 (stereo not shown) [NHGA, nordihydroguaiaretic acid]
activity (altered biomap) in the optimized assay combination (HUVEC cells [1]): altered biomaps

5′-AGGTCAGGCACGGTGGAGAGGC-3′ (all phosphorodiamidate morpholino (PMO)) [TNF-R1 antisense]
biomap versus control oligo upon treatment with TNF-α (TNF-R1 (p55); 0.6 μM morpholino, TNF-α (0.5 ng/ml)): altered biomap
induction of ICAM-1 by IL-1 (TNF-R1 (p55); IL-1 (1 ng/ml)): no effect
induction of VCAM-1 by IL-1 (TNF-R1 (p55); IL-1 (1 ng/ml)): no effect
induction of ICAM-1 by TNF-α (TNF-R1 (p55); TNF-α (0.5 ng/ml)): blocks
induction of VCAM-1 by TNF-α (TNF-R1 (p55); TNF-α (0.5 ng/ml)): blocks

S=C(S)N1CCCC1 [PDTC, pyrrolidine dithiocarbamate]
activity (altered biomap) in the optimized assay combination (HUVEC cells [1]): altered biomaps

COc1cccc(-c2cc(=O)c3ccccc3o2)c1N [PD098059]
activity (altered biomap) in the optimized assay combination (HUVEC cells [1]): altered biomaps

ceramide
release of cytoplasmic lactate dehydrogenase into the supernatant (cell damage) vs basal conditions (HUVEC cells [2]): enhanced

N#CC(C#N)=Cc1ccc([N+](=O)[O-])c(O)c1 [AG126]
activity (altered biomap) in the optimized assay combination (HUVEC cells [1]): active compounds

B1: IFN-γ: cytokine used as factor (protein)
chain: QDPYVKEAENLKKYFNAGHSDVADNGTLFLGILKNWKEESDRKIMQSQIVSFYFKLFKNFKDDQSIQKSVETIKEDMNVKFFNSNKKKRDDFEKLTNYSVTDLNVQRKAIHELIQVMAELSPAAKTGKRKRSQMLFRGRRASQ
level of HLA-DR (HUVEC cells [3]): increased
level of ICAM-1 (HUVEC cells [3]): increased
level of MIG (HUVEC cells [3]): increased

B2: p55-Fc: recombinant fusion protein containing the extracellular domains of the p55 TNF-α-receptor fused to immunoglobulin Fc domain (protein)
chain: LVPHLGDREKRDSVCPQGKYIHPQNNSICCTKCHKGTYLYNDCPGPGQDTDCRECESGSFTASENHLRHCLSCSKCRKEMGQVEISSCTVDRDTVCGCRKNQYRHYWSENLFQCFNCSLCLNGTVHLSCQEKQNTVCTCHAGFFLRENECVSCSNCKKSLECTKLCLPQIENVKGTEDSGTT
modifications: left off: a dimerising Fc or GST
notes: recombinant fusion protein containing the extracellular domains of the p55 TNF-α-receptor fused to immunoglobulin Fc domain
activity (altered biomap) in the optimized assay combination (HUVEC cells [1]): active compound
biomap of cultures containing activating antibody to TNF-α-receptor p55: sensitivity to the agent (HUVEC cells [4]; Act-anti-p55, 24 hours): is sensitive; also recorded: alters
biomap of the assay combination containing IL-1 alone: sensitivity to the agent (HUVEC cells [4]; IL-1, 24 hours): not sensitive
biomap of the assay combination containing TNF-α alone: sensitivity to the agent (HUVEC cells [4]; TNF-α (5 ng/ml), 24 hours): altered; also recorded: is sensitive
